Measurements from patent US9018219B2, “Fused aminodihydropyrimidine derivative” (Shionogi & Co., Ltd., priority 2010, dated 2015).

What was measured:
CYP3A4 = CYP3A4 (Homo sapiens, UniProt P08684); assay: CYP3A4 fluorescent MBI test; format: in vitro ADME; parameters: host or cells: Escherichia coli; settings: 7-BFC substrate, pre-reaction 0 or 30 minutes, CYP3A4 expressed in Escherichia coli
Procedure: The CYP3A4 fluorescent MBI test is a test of investigating enhancement of CYP3A4 inhibition of the compound of the present invention by a metabolism reaction. 7-benzyloxytrifluoromethylcoumarin (7-BFC) is debenzylated by the CYP3A4 enzyme (enzyme expressed in Escherichia coli) and a metabolite, 7-hydroxytrifluoromethylcoumarin (7-HFC) which emits fluorescent light is produced. The test is performed using 7-HFC production reaction as an index.
The reaction conditions are as follows: substrate, […] 7-BFC; pre-reaction time, 0 or 30 minutes; reaction time, 15 minutes; reaction temperature, 25° C. […]
An enzyme in a K-Pi buffer (pH 7.4) and the compound of the present invention solution as a pre-reaction solution were added to a 96-well plate at the composition of the pre-reaction, a part of it was transferred to another 96-well plate so that it was 1/10 diluted by a substrate in a K-Pi buffer, NADPH as a co-factor was added to initiate a reaction as an index (without preincubation) and, after a predetermined time of a reaction, acetonitrile/0.5 mol/L Tris (trishydroxyaminomethane)=4/1 was added to stop the reaction. […] For the plate on which each index reaction had been performed, a fluorescent value of 7-HFC which is a metabolite was measured with a fluorescent plate reader. […]

Recombinant human BACE-1 = target: T1, Recombinant human BACE-1 (Homo sapiens, UniProt P56817); assay: Assay of BACE1 inhibitory activity; format: biochemical; settings: Recombinant human BACE1 7.4 nmol/L, substrate peptide 18 nmol/L, pH 5.0, 30° C. for 3 hours; read-out: IC50 (50% inhibitory concentration against the enzymatic activity)
T1 construct: purchased R&D Systems
T1 sequence (P56817 46-501): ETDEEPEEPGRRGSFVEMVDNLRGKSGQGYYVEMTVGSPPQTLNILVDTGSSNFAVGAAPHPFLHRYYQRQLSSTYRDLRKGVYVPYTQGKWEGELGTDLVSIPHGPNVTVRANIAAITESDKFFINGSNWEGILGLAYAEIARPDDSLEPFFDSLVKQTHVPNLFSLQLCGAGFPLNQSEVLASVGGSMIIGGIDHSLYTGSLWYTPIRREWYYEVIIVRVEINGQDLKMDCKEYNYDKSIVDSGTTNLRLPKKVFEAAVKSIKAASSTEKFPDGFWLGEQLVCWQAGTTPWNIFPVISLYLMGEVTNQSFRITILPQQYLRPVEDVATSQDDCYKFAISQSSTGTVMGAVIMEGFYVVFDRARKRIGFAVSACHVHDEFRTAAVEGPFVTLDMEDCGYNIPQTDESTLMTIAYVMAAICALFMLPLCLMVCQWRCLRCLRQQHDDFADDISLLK
Procedure: 48.5 μL of substrate peptide solution (Biotin-XSEVNLDAEFRHDSGC-Eu: X=ε-amino-n-capronic acid, Eu=Europium cryptate) was added to each well of 96-hole half-area plate (a black plate: Costar), and after addition of 0.5 μl of the compound of the present invention (N,N′-dimethylformamide solution) and 1 μl of Recombinant human BACE-1 (R&D Systems), the reaction mixture was incubated at 30° C. for 3 hours. The substrate peptide was synthesized by reacting Cryptate TBPCOOH mono SMP (CIS bio international) with Biotin-XSEVNLDAEFRHDSGC (Peptide Institute, Inc.). The final concentrations of the substrate peptide and Recombinant human BACE1 were adjusted to 18 nmol/L and 7.4 nmol/L, respectively, and the reaction was performed in sodium acetate buffer (50 mmol/L sodium acetate, pH 5.0, 0.008% Triton X-100). After the incubation for reaction, 50 μl of 8.0 μg/ml Streptavidin-XL665 (CIS bio international) dissolved in phosphate buffer (150 mmol/L K2HPO4—KH2PO4, pH 7.0, 0.008% Triton X-100, 0.8 mol/L KF) was added to each well and left stand at 30° C. for 1 hour. After then, fluorescence intensity was measured (excitation wavelength: 320 nm, measuring wavelength: 620 nm and 665 nm) using Wallac 1420 multilabel counter (Perkin Elmer life sciences). Enzymatic activity was determined from counting ratio of each wavelength (10,000×Count 665/Count 620) and 50% inhibitory concentration against the enzymatic activity (IC50) was calculated.

[1] = test system: Neuroblastoma SH-SY5Y cells (SH/APPwt) with human wild-type β-APP excessively expressed; assay: Measurement of β-amyloid (Aβ) production inhibiting effect in cell; format: cell-based; settings: 24 hours incubation, Amyloid β 1-40 HTRF in culture supernatant, read-out: IC50 (amount needed to inhibit Aβ production by 50%)
Procedure: Neuroblastoma SH-SY5Y cells (SH/APPwt) with human wild-type β-APP excessively expressed therein were prepared at 8×10^5 cells/mL, and 150 μl portions thereof were inoculated into each well of a 96-well culture plate (Falcon). The cells were cultured for 2 hours at 37° C. in a 5% gaseous carbon dioxide incubator. Then, a solution which have been preliminarily prepared by adding and suspending the compound of the present invention (DMSO (dimethyl sulfoxide) solution) so as to be 2 μl/50 μl medium was added to the cell sap. Namely, the final DMSO concentration was 1%, and the amount of the cell culture was 200 μl. After the incubation was performed for 24 hours from the addition of the test compound, 100 μl of the culture supernatant was collected from each fraction. The amount of the Aβ in each fraction was measured.
The Aβ amount was measured as follows. 10 μl of a homogeneous time resolved fluorescence (HTRF) measurement reagent (Amyloid β 1-40 peptide; IBA Molecular Holding, S.A.) and 10 μl of the culture supernatant were put into a 384-well half area microplate (black microplate, Costar) and mixed with each other, and then left standing overnight at 4° C. while the light was shielded. Then, the fluorescence intensity (excitation wavelength: 337 nm, measurement wavelength: 620 nm and 665 nm) was measured with Wallac 1420 multilabel counter (Perkin Elmer life sciences). The Aβ amount was determined from the count rate at each measurement wavelength (10000×Count 665/Count 620), and the amount needed to inhibit Aβ production by 50% (IC50) was calculated from at least six different dosages.

[2] = Solubility test (turbidity, Test Example 7-1); format: physicochemical; settings: pH 6.8, aqueous buffer, kinetic from dmso stock; JP-II medium, 2% DMSO, turbidity after 4 hours; read-out: solubility assessed by 3 stages
Procedure: A 2-fold dilution series (12 points) of a 10 mM solution of a compound of the present invention in DMSO was added to a medium (JP-I, JP-II) (2%), and solubility was assessed by 3 stages (High; >40 μM, Medium; 3-40 Low; <3 μM) from a turbidity after 4 hours.

[3] = Brain distribution studies; format: in vivo; settings: brain/plasma; rat, intravenous 0.5 mg/mL/kg, 30 minutes later; read-out: brain Kp value (area ratio brain/plasma)
Procedure: Compound of the present invention is intravenously administered to a rat at 0.5 mg/mL/kg dosage.
The brain is enucleated and 20-25% of homogenate thereof is prepared with distilled water.
The obtained blood is used as plasma after centrifuging. To the brain sample is added the control plasma at 1:1. To the plasma samples is added the control brains at 1:1. Each sample is measured using LC/MS/MS. The obtained area ratio (a brain/plasma) is used for the brain Kp value.

Sequence of CYP3A4 (P08684 whole entry): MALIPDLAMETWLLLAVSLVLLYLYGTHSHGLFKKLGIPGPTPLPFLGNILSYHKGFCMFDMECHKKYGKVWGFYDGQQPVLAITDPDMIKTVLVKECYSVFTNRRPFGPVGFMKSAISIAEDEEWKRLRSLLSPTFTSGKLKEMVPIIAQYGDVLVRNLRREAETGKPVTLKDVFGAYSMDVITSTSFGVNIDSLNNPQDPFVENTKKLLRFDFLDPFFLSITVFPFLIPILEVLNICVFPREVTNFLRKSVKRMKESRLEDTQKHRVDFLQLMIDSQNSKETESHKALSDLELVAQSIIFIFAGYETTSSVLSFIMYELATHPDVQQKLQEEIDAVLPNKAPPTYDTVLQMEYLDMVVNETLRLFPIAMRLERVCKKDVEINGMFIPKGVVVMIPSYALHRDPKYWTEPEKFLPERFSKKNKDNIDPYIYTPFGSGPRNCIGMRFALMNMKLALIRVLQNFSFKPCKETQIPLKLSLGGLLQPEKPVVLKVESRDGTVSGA

SMILES	IC50 (Recombinant human BACE-1)	IC50 [1]	solubility at 4 h [2]	Kp at 0.5 h [3]	CYP3A4 fluorescent MBI: difference between IC50 values without and with preincubation (CYP3A4)
CC1(c2cc(NC(=O)c3ccc(C#N)cn3)ccc2F)Cc2cncn2C(N)=N1 (stereo not shown) [Compound I-6]	≤ 1000 nM	≤ 1000 nM			
CC1(c2cc(-c3cccnc3F)ccc2F)Cc2cncn2C(N)=N1 (stereo not shown) [Compound I-7]	≤ 1000 nM	≤ 1000 nM		1.7	

Now from value to molecule, other results behind:

IC50 (Recombinant human BACE-1)	IC50 [1]	solubility at 4 h [2]	Kp at 0.5 h [3]	SMILES	CYP3A4 fluorescent MBI: difference between IC50 values without and with preincubation (CYP3A4)
≤ 1000 nM	≤ 1000 nM	> 40 µM		C[C@@]1(c2cc(NC(=O)c3ccc(C#N)cn3)ccc2F)Cc2nccn2C(N)=N1 [Compound I-1]	(−) (when the difference is 3 μM or less, this was defined as (−))
36 nM	3 nM			C[C@@]1(c2cc(NC(=O)c3ccc(C#N)cn3)ccc2F)Cc2ccnn2C(N)=N1 [Compound I-3]	
≤ 1000 nM	≤ 1000 nM			CC#Cc1cncc(-c2csc([C@]3(C)Cc4nccn4C(N)=N3)c2)c1 [Compound I-4]	
